In patent publication US20120225132A1, “Methods for Increasing the Kinetic Activity of Alcohol, Water and Other Liquids, so as to Render the Liquids More Capable of Enhancing the Alternative Cellular Energy Pathway in the Prevention and Therapy of Diseases” (priority 2011, published 2012):

Tested on: ACE pathway
Assay: Clinical evaluation of ethanol solutions (with neutral red dye and UV illumination) by the parent of an autistic child
Format: in vivo
Conditions: standardized protocol

SMILES: CCO [unprocessed ethanol, ethanol]
- clinical response of the child with autism as judged by the parent: still effective
